Experimental findings from US12503436B2, “Compounds and compositions for treating conditions associated with STING activity” (NOVARTIS PHARMA AG, priority 2021, dated 2025) are described below.

SMILES strings stand for the structures.

Sequence of STING (Q86WV6 whole entry R71H/G230A/H232R/R293Q): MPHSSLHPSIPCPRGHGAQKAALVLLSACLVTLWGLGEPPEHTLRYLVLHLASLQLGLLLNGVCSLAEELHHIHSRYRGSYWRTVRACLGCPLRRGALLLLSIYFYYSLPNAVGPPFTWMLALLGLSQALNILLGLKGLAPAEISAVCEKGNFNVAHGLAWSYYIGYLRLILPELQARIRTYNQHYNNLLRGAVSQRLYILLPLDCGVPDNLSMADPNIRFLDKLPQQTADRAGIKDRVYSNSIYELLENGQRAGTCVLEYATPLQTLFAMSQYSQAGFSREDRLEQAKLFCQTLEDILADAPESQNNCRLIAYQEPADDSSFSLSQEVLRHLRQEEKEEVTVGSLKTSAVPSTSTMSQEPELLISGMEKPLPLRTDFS

In the assay the target is STING (Homo sapiens, UniProt Q86WV6, G230A/H232R/R293Q/R71H). Briefly: STING reporter assay in THP1-Dual KO-IFNAR2 cells (2′3′cGAMP stimulation, luciferase reporter). The class given is cell-based. Conditions: 15 μM 2′3′cGAMP stimulation, 24 h, read-out: Pharmaron, THP1_IFNAR2 STING 24 h Luci Normalized: GeoMean EC50. Here is the method:
STING pathway activation by the compounds described herein was measured using THP1-Dual™ cells (KO-IFNAR2).
THP1-Dual™ KO-IFNAR2 Cells (obtained from InvivoGen) were maintained in RPMI, 10% FCS, 5 ml P/S, 2 mM L-glut, 10 mM Hepes, and 1 mM sodium pyruvate. Compounds were spotted in empty 384 well tissue culture plates (Greiner 781182) by Echo for a final concentration of 0.0017-100 μM. Cells were plated into the TC plates at 40 μL per well, 2×10E6 cells/mL. For activation with STING ligand, 2′3′cGAMP (MW 718.38, obtained from Invivogen), was prepared in Optimem media.
The following solutions were prepared for each 1×384 plate: • Solution A: 2 mL Optimem with one of the following stimuli: • 60 μL of 10 mM 2′3′cGAMP→150 μM stock • Solution B: 2 mL Optimem with 60 μL Lipofectamine 2000→Incubate 5 min at RT
2 mL of solution A and 2 ml Solution B was mixed and incubated for 20 min at room temperature (RT). 20 μL of transfection solution (A+B) was added on top of the plated cells, with a final 2′3′cGAMP concentration of 15 μM. The plates were then centrifuged immediately at 340 g for 1 minute, after which they were incubated at 37° C., 5% CO2, >98% humidity for 24 h. Luciferase reporter activity was then measured. EC50 values were calculated by using standard methods known in the art.
Luciferase reporter assay: 10 μL of supernatant from the assay was transferred to white 384-plate with flat bottom and squared wells. One pouch of QUANTI-Luc™ Plus was dissolved in 25 mL of water. 100 μL of QLC Stabilizer per 25 mL of QUANTI-Luc™ Plus solution was added. 50 μL of QUANTI-Luc™ Plus/QLC solution per well was then added. Luminescence was measured on a Platereader (e.g., Spectramax I3X (Molecular Devices GF3637001)).
Luciferase reporter activity was then measured. EC50 values were calculated by using standard methods known in the art.
As usually defined, the EC50 is the concentration needed to bring the measured effect to its halfway point. As for `COC1CC(C(=O)Nc2c[nH]c3ccc(O[C@H]4C[C@@H](c5ccc(C(F)(F)F)cc5)C4)cc23)C1` (stereo partly drawn) [Compound 159, 3-methoxy-N-{5-[(1S,3S)-3-[4-(trifluoromethyl)phenyl]cyclobutoxy]-1H-indol-3-yl}cyclobutane-1-carboxamide], the EC50 lay within 40 to 200 nM.

As for `CC[C@@H](O)C(=O)Nc1c[nH]c2ccc(O[C@H]3C[C@H](c4ccc(C(F)(F)F)cc4)C3)cc12` [Compound 429, (R)-2-hydroxy-N-(5-(trans-3-(4-(trifluoromethyl)phenyl)cyclobutoxy)-1H-indol-3-yl)butanamide], the EC50 lay in the range of 200 to 1000 nM.

Regarding `CC(C)(C)C(=O)Nc1c[nH]c2ccc(OCC[C@@H]3C[C@@H]4CN(CC(F)(F)F)C[C@@H]4C3)cc12` [Compound 367, N-(5-(2-((3aR,5r,6aS)-2-(2,2,2-trifluoroethyl)octahydrocyclopenta[c]pyrrol-5-yl)ethoxy)-1H-indol-3-yl)pivalamide], the EC50 fell in the range of 200 to 1000 nM.

With `CC(C)(C)C(=O)Nc1c[nH]c2ccc(CCOc3ccc(C(F)(F)F)cc3)cc12` [Compound 389, N-(5-(2-(4-(trifluoromethyl)phenoxy)ethyl)-1H-indol-3-yl)pivalamide], the EC50 is 200 to 1000 nM.

Consider `CC(=O)Nc1c[nH]c2ccc(OCC3Cc4cn(CC(F)(F)F)nc4C3)cc12` (centres unmarked) [Compound 447, N-(5-((2-(2,2,2-trifluoroethyl)-2,4,5,6-tetrahydrocyclopenta[c]pyrazol-5-yl)methoxy)-1H-indol-3-yl)acetamide], for which the EC50 lay in the range of 5000 to 100000 nM.

As to `O=C(Nc1c[nH]c2ccc(O[C@H]3C[C@@H](c4ccc(C(F)(F)F)cc4)C3)cc12)C1CC1(F)F` (stereo partly drawn) [Compound 364, 2,2-difluoro-N-(5-(cis-3-(4-(trifluoromethyl)phenyl)cyclobutoxy)-1H-indol-3-yl)cyclopropane-1-carboxamide], the EC50 fell in the range of 40 to 200 nM.

For `O=C(Nc1c[nH]c2ccc(OCC[C@@H]3C[C@@H]4CN(CC(F)(F)F)C[C@@H]4C3)cc12)C1CC1(F)Cl` (stereo partly drawn) [Compound 577, 2-chloro-2-fluoro-N-(5-(2-((3aR,5r,6aS)-2-(2,2,2-trifluoroethyl)octahydrocyclopenta[c]pyrrol-5-yl)ethoxy)-1H-indol-3-yl)cyclopropane-1-carboxamide], the EC50 lay within 200 to 1000 nM.

As for `N#C[C@H]1C[C@@H]1C(=O)Nc1c[nH]c2ccc(OCCc3ccc(C(F)(F)F)cc3)cc12` [Compound 203, (1S,2S)-2-cyano-N-(5-(4-(trifluoromethyl)phenethoxy)-1H-indol-3-yl)cyclopropane-1-carboxamide], the EC50 lay in the range of 200 to 1000 nM.

For `O=C(Nc1c[nH]c2ccc(O[C@H]3C[C@H](c4ccc(C(F)(F)F)cc4)C3)cc12)C1CC1(F)Cl` (stereo partly drawn) [Compound 571, 2-chloro-2-fluoro-N-(5-(trans-3-(4-(trifluoromethyl)phenyl)cyclobutoxy)-1H-indol-3-yl)cyclopropane-1-carboxamide], the EC50 fell in the range of 200 to 1000 nM.

With `C[C@]1(C(=O)Nc2c[nH]c3ccc(OCC[C@@H]4C[C@@H]5CN(CC(F)(F)F)C[C@@H]5C4)cc23)CC[C@@H](O)CC1` [Compound 505, (1s,4S)-4-hydroxy-1-methyl-N-(5-(2-((3aR,5r,6aS)-2-(2,2,2-trifluoroethyl)octahydrocyclopenta[c]pyrrol-5-yl)ethoxy)-1H-indol-3-yl)cyclohexane-1-carboxamide], the EC50 lay in the range of 200 to 1000 nM.

In the case of `N#CC1(C(=O)Nc2c[nH]c3ccc(OCC[C@@H]4C[C@@H]5CN(CC(F)(F)F)C[C@@H]5C4)cc23)CC1` [Compound 370, 1-cyano-N-(5-(2-((3aR,5r,6aS)-2-(2,2,2-trifluoroethyl)octahydrocyclopenta[c]pyrrol-5-yl)ethoxy)-1H-indol-3-yl)cyclopropane-1-carboxamide], the half-maximal effective concentration (EC50) lay in the range of 200 to 1000 nM.

In the case of `CN1CC(C(=O)Nc2c[nH]c3ccc(OCC[C@@H]4C[C@@H]5CN(CC(F)(F)F)C[C@@H]5C4)cc23)C1` [Compound 303, 1-methyl-N-(5-(2-((3aR,5r,6aS)-2-(2,2,2-trifluoroethyl)octahydrocyclopenta[c]pyrrol-5-yl)ethoxy)-1H-indol-3-yl)azetidine-3-carboxamide], the EC50 is 5000 to 100000 nM.

As for `O=C(Nc1c[nH]c2ccc(O[C@H]3C[C@H](c4ccc(C(F)(F)F)cc4)C3)cc12)C1CC(Cl)C1` (stereo partly drawn) [Compound 554, 3-chloro-N-(5-(trans-3-(4-(trifluoromethyl)phenyl)cyclobutoxy)-1H-indol-3-yl)cyclobutane-1-carboxamide], the EC50 fell in the range of 200 to 1000 nM.

Regarding `O=C(Nc1c[nH]c2ccc(O[C@H]3C[C@H](c4ccc(C(F)(F)F)cc4)C3)cc12)C1CN(CC(F)(F)F)C1` [Compound 244, 1-(2,2,2-trifluoroethyl)-N-(5-(trans-3-(4-(trifluoromethyl)phenyl)cyclobutoxy)-1H-indol-3-yl)azetidine-3-carboxamide], the EC50 lay in the range of 40 to 200 nM.

Take `CC(=O)Nc1c[nH]c2ccc(CCOc3ccc(CC(F)(F)F)cc3)cc12` [Compound 442, N-(5-{2-[4-(2,2,2-trifluoroethyl)phenoxy]ethyl}-1H-indol-3-yl)acetamide]: the EC50 was in the range of 40 to 200 nM.

For the compound `C=CCc1ccccc1OCCc1ccc2[nH]cc(NC(C)=O)c2c1` [Compound 548, N-(5-(2-(2-allylphenoxy)ethyl)-1H-indol-3-yl)acetamide], the EC50 was in the range of 200 to 1000 nM.

On to `O=C(Nc1c[nH]c2ccc(OCC[C@@H]3C[C@@H]4CN(CC(F)(F)F)C[C@@H]4C3)cc12)C1CC(F)C1` (stereo partly drawn) [Compound 589, 3-fluoro-N-(5-(2-((3aR,5r,6aS)-2-(2,2,2-trifluoroethyl)octahydrocyclopenta[c]pyrrol-5-yl)ethoxy)-1H-indol-3-yl)cyclobutane-1-carboxamide], for which the EC50 was 40 to 200 nM.

For `CO[C@H]1C[C@@H](C(=O)Nc2c[nH]c3ccc(OCCc4ccc(C(F)(F)F)cc4)cc23)C1` [Compound 222, cis-3-methoxy-N-(5-(4-(trifluoromethyl)phenethoxy)-1H-indol-3-yl)cyclobutane-1-carboxamide], the EC50 lay in the range of 40 to 200 nM.

On to `O=C(Nc1c[nH]c2ccc(O[C@H]3C[C@@H](c4ccc(C(F)(F)F)cc4)C3)cc12)C1(F)CC1` [Compound 302, 1-fluoro-N-(5-(cis-3-(4-(trifluoromethyl)phenyl)cyclobutoxy)-1H-indol-3-yl)cyclopropane-1-carboxamide], for which the EC50 was in the range of 200 to 1000 nM.

With `CC(=O)Nc1c[nH]c2ccc(CCOc3ccc(OC(F)(F)F)c(F)c3)cc12` [Compound 438, N-(5-{2-[3-fluoro-4-(trifluoromethoxy)phenoxy]ethyl}-1H-indol-3-yl)acetamide], the EC50 fell in the range of 40 to 200 nM.

As to `CC1(C(=O)Nc2c[nH]c3ccc(OCC[C@@H]4C[C@@H]5CN(CC(F)(F)F)C[C@@H]5C4)cc23)CCC1` [Compound 369, 1-methyl-N-(5-(2-((3aR,5r,6aS)-2-(2,2,2-trifluoroethyl)octahydrocyclopenta[c]pyrrol-5-yl)ethoxy)-1H-indol-3-yl)cyclobutane-1-carboxamide], the EC50 fell in the range of 200 to 1000 nM.

For `O=C(Nc1c[nH]c2ccc(OCCc3ccc(C(F)(F)F)cc3)cc12)[C@H]1C[C@H](CO)C1` [Compound 534, trans-3-(hydroxymethyl)-N-(5-(4-(trifluoromethyl)phenethoxy)-1H-indol-3-yl)cyclobutane-1-carboxamide], the EC50 lay in the range of 40 to 200 nM.

As for `CC(Cc1ccc(C(F)(F)F)cc1)Cc1ccc2[nH]cc(NC(=O)C3CCC3)c2c1` (centres unmarked) [Compound 137, N-(5-(2-methyl-3-(4-(trifluoromethyl)phenyl)propyl)-1H-indol-3-yl)cyclobutanecarboxamide], the EC50 lay within 1000 to 5000 nM.
